What was measured:
[1] = test system: C57BL/6J mice; test: Glomerular hypertrophy and glomerular mesangial expansion (PAS staining of kidney); format: in vivo; conditions: treatment group vs diabetes group, 10 mg/kg/day oral, 12 weeks
Procedure: For morphological analysis for examining glomerular hypertrophy and glomerular mesangial cell formation, a staining method was used as disclosed previously (Lee E A, Seo J Y, Jiang Z, Yu M R, Kwon M K, Ha H, Lee H B: Reactive oxygen species mediate high glucose-induced plasminogen activator inhibitor-1 up-regulation in mesangial cells and in diabetic kidney. Kidney Int. 67:1762-71, 2005). As described in Example 10, diabetes was induced in mice that were then treated with 1-(pyridin-2-yl)-3-phenyl-4-propyl-1H-pyrazol-5-ol.HCl, the compound of Example 1, and scarified 12 weeks later. After cardiac perfusion with 0.1 M PBS (phosphate-buffered saline), tissue fixation was performed overnight with 2% PLP (paraformaldehyde-lysine-periodate). […] In one renal tissue, 30 glomeruli were scanned, and measured for size and mesangial cell formation, using Image-Pro Plus 4.5 Software (MEDIA CYBERNETICS). The glomerular size was calculated according to Equation 1. […] Data of FIG. 1 are expressed as mean±standard error (SE) from 8 to 12 mice per group. Statistic comparison among the groups was analyzed by ANOVA and Fisher's least significant difference test, with significance at p<0.05. *P<0.05 vs. WT, †P<0.05 vs DM.

[2] = test system: C57BL/6J mice; test: Renal fibrosis: real-time PCR analysis of renal tissues; format: in vivo; conditions: renal tissue, treatment group vs diabetes group, 12 weeks
Procedure: Total RNA was isolated using Trizol reagent (Invitrogen) according to the manufacturer's instruction. The total RNA isolate was used for real-time PCR.
Briefly, as described in Example 10, diabetes was induced, and 1-(pyridin-2-yl)-3-phenyl-4-propyl-1H-pyrazol-5-ol.HCl, the compound of Example 1 of the present invention, was administered to the mice that were sacrificed 12 weeks later. Then, renal tissues were excised from the mice and homogenized with a predetermined amount (500 μl) of Trizol reagent (Invitrogen), followed by centrifuging the homogenate (13,000 rpm, 10 min). The supernatant was reacted with 200 μl of chloroform for 15 min and centrifuged. The total RNA was precipitated with isopropyl alcohol, and washed with 75% ethyl alcohol before use in experiments. From 2 μg of total RNA, cDNA was synthesized using a reverse transcription kit (Applied Biosystems), and selective mRNA was quantitatively analyzed in ABI 7300 real-time PCR thermal cycler (Applied Biosystems) with the aid of SYBR Green PCR Master Mix kit according to the manufacturer's instruction. Each experiment was run in duplicate with 20 μl. For correct quantitation and identification of results from a single product, a standard curve and a dissociation curve were employed. PCR was performed with 40 thermal cycles of 95° C. for 15 sec and 56° C. for 1 min.
In FIG. 3, the control (WT) stands for a group in which type 1 diabetes mellitus was not induced, the diabetes group (DM) for a group in which type 1 diabetes mellitus was induced, and the treatment group (DM+compound of Example 1) for a group that was treated with the compound of Example 1 after introduction of type 1 diabetes mellitus. Data of FIG. 3 are expressed as mean±standard error (SE) from 8 to 12 mice per group. Statistic comparison among the groups was analyzed by ANOVA and Fisher's least significant difference test, with significance at p<0.05. *P<0.05 vs. WT, †P<0.05 vs. DM.

In the case of CCCc1c(-c2ccccc2)nn(-c2ccccn2)c1O.Cl [Compound 18-278, 1-(pyridin-2-yl)-3-phenyl-4-propyl-1H-pyrazol-5-ol.HCl], the “glomerular mesangial expansion (fractional mesangial area)” value [1] is reported as “reduced to the level of the control”, the “glomerular size (glomerular volume)” value [1] is reported as “significantly smaller than that of the diabetes group” and the “expression level of Collagen Iα1 mRNA to 18S rRNA” value [2] is reported as “significantly decreased”. The “expression level of F4/80 mRNA to 18S rRNA” value [2] was “significantly decreased”, the “expression level of TGF-β1 mRNA to 18S rRNA” value [2] was “significantly decreased” and the “expression level of collagen IV mRNA to 18S rRNA” value [2] was “significantly decreased”. For the same molecule, the “expression level of fibronectin mRNA to 18S rRNA” value [2] was “significantly decreased”.
